# Laboratory results: patent US9670209B2 (ACADIA Pharmaceuticals Inc., priority 2013, dated 2017)
# Columns and labels:
# [1] = molecular target: human M1 muscarinic acetylcholine receptor (Homo sapiens (Human), UniProt P11229); assay: R-SAT (Receptor Selection and Amplification) assay, M1; assay type: cell-based; conditions: for Emax: percent efficacy vs carbachol = 100 percent, read-out: M1 EFF % AVG
# Description: (§1) Briefly, NIH-3T3 cells were grown in 96-well tissue culture plates to 70% to 80% confluence. Cells were transfected with plasmid DNAs using Superfect Reagent (QIAGEN, Valencia, Calif.) as per the manufacturer's protocols. […] Cells were then grown in a humidified atmosphere with 5% ambient CO2 for 4 to 6 days. Media were then removed from the plates, and beta-galactosidase activity was measured by the addition of o-nitrophenyl-D-galactopyranoside (in phosphate-buffered saline with 5% NP-40 detergent). […] All data represent the mean of three wells and were analyzed using the computer program Excel Fit, and EC50 determinations were made using least-squares fit analysis with GraphPad Software Inc. (San Diego, Calif.) software.
# [2] = molecular target: human M2 muscarinic acetylcholine receptor (Homo sapiens (Human), UniProt P08172); assay: R-SAT (Receptor Selection and Amplification) assay, M2; assay type: cell-based; conditions: for M2 PEC50 AVG: R-SAT, NIH-3T3 cells; for Emax: read-out: M2 EFF % AVG
# Sequence of human M2 muscarinic acetylcholine receptor (P08172 whole entry): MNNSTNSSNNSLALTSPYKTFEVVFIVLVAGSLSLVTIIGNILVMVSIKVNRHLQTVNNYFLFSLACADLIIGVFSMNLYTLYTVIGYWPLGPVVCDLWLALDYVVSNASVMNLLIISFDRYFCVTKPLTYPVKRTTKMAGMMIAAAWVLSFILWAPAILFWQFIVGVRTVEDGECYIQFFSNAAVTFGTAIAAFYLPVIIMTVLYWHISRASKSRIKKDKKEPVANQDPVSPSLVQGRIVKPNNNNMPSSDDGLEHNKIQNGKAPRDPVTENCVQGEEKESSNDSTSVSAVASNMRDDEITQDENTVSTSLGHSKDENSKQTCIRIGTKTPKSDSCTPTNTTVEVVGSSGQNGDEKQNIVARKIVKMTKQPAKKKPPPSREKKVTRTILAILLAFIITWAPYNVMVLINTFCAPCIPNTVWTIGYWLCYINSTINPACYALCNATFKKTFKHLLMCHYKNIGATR
# Description: as §1
# M1 muscarinic receptor = M1 muscarinic receptor (Homo sapiens (Human), UniProt P11229); assay: M1 GTPγS binding assay; assay type: biochemical; conditions: for Emax: read-out: M1 GTPγS EFF % AVG; for M1 GTPγS PEC50 AVG: GTPγS binding;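 on Emax: efficacy relative to carbachol as 100%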
# Sequence of M1 muscarinic receptor (P11229 whole entry): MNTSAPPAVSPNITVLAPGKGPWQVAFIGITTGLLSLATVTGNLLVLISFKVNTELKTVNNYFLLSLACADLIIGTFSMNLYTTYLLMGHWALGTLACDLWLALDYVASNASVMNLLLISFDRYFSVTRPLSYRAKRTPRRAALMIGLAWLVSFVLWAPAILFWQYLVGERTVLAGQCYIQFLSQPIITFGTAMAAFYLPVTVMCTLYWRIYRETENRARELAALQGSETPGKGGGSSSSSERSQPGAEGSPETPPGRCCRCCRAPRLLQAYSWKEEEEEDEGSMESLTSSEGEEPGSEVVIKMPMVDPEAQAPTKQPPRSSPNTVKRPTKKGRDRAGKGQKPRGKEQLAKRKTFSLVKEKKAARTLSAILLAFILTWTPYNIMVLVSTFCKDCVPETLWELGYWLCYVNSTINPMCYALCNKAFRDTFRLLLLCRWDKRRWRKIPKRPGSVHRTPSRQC
# [3] = molecular target: human M3 muscarinic acetylcholine receptor (Homo sapiens (Human), UniProt P20309); assay: R-SAT (Receptor Selection and Amplification) assay, M3; assay type: cell-based; conditions: for Emax: read-out: M3 EFF % AVG; for M3 PEC50 AVG: R-SAT, NIH-3T3 cells
# Sequence of human M3 muscarinic acetylcholine receptor (P20309 whole entry): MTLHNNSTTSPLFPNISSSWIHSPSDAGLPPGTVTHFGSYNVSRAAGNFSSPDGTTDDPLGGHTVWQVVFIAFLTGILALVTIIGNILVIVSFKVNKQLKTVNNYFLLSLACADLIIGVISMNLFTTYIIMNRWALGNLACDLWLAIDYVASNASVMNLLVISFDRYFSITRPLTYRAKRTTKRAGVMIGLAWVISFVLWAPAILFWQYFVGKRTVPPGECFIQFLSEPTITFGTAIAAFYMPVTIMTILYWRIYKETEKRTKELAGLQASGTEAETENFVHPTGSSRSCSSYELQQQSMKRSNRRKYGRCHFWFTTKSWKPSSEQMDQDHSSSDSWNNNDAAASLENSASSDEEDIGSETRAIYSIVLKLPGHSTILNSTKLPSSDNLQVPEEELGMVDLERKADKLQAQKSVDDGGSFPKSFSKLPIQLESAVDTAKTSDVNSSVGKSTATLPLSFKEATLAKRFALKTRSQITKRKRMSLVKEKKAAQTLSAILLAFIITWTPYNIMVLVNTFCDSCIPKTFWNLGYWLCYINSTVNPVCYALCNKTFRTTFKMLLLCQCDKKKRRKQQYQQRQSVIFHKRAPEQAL
# Description: as §1
# Sequence of human M1 muscarinic acetylcholine receptor (P11229 whole entry): as the sequence (P11229 whole entry) above
compound,measurement,setting,value
"Cc1cccc2cnn(C[C@H](C)CN3[C@@H]4CC[C@H]3C[C@@H](OCC3CC3)C4)c12 [Compound 317, 1-((R)-3-(3-(cyclopropylmethoxy)-8-aza-bicyclo[3.2.1]octan-8-yl)-2-methylpropyl)-7-methyl-1H-indazole]",M1 PEC50 AVG,[1]; NIH-3T3 cells,7.6
same,Emax,[1],81%
same,M2 PEC50 AVG,[2],6.9
same,Emax,[2],46%
same,EC50,M1 muscarinic receptor,100 nM
same,Emax,M1 muscarinic receptor,85%
same,Emax,[3],2%
"COCC[C@H]1C[C@H]2CC[C@@H](C1)N2C[C@@H](C)Cn1ncc2ccc(OC)cc21 [Compound 313, 1-((R)-3-((1R,3R,58)-3-(2-methoxyethyl)-8-azabicyclo[3.2.1]octan-8-yl)-2-methylpropyl)-6-methoxy-1H-indazole]",M1 PEC50 AVG,[1]; NIH-3T3 cells,8.2
same,Emax,[1],116%
same,M2 PEC50 AVG,[2],7.3
same,Emax,[2],111%
same,EC50,M1 muscarinic receptor,39.8 nM
same,Emax,M1 muscarinic receptor,49%
same,Emax,[3],7%
"C[C@H](CN1[C@@H]2CC[C@H]1C[C@@H](OCC1CC1)C2)Cn1ncc2ccc(F)cc21 [Compound 307, 1-((R)-3-(3-(Cyclopropylmethoxy)-8-aza-bicyclo[3.2.1]octan-8-yl)-2-methylpropyl)-6-fluoro-1H-indazole]",M1 PEC50 AVG,[1]; NIH-3T3 cells,9.5
same,Emax,[1],156%
same,M2 PEC50 AVG,[2],7.7
same,Emax,[2],198%
same,M1 GTPγS PEC50 AVG,M1 muscarinic receptor,8.0
same,Emax,M1 muscarinic receptor,63%
same,M3 PEC50 AVG,[3],7.3
same,Emax,[3],19%
C[C@H](CN1[C@@H]2CC[C@H]1C[C@@H](OCC1CC1)C2)Cn1ncc2ccc(CO)cc21 [Compound 310s],EC50,"[1]; NIH-3T3 cells, read-out: M1 PEC50 AVG (converted)",31.6 nM
same,Emax,[1],96%
same,Emax,[2],27%
same,EC50,M1 muscarinic receptor,631 nM
same,Emax,M1 muscarinic receptor,62%
same,Emax,[3],6%
"C[C@H](CN1[C@@H]2CC[C@H]1C[C@@H](OCC1CCC1)C2)Cn1ncc2ccccc21 [Compound 315, 1-((R)-3-(3-(cyclobutylmethoxy)-8-aza-bicyclo[3.2.1]octan-8-yl)-2-methylpropyl)-1H-indazole]",M1 PEC50 AVG,[1]; NIH-3T3 cells,8.1
same,Emax,[1],100%
same,M2 PEC50 AVG,[2],7.3
same,Emax,[2],47%
same,EC50,M1 muscarinic receptor,50.1 nM
same,Emax,M1 muscarinic receptor,36%
same,Emax,[3],5%
"CCOCC[C@H]1C[C@H]2CC[C@@H](C1)N2C[C@@H](C)Cn1ncc2ccc(C)cc21 [Compound 324, 1-((R)-3-((1R,3R,5S)-3-(2-ethoxyethyl)-8-azabicyclo[3.2.1]octan-8-yl)-2-methylpropyl)-6-methyl-1H-indazole]",M1 PEC50 AVG,[1]; NIH-3T3 cells,9.1
same,Emax,[1],82%
same,M2 PEC50 AVG,[2],7.9
same,Emax,[2],45%
same,EC50,M1 muscarinic receptor,6.31 nM
same,Emax,M1 muscarinic receptor,31%
same,Emax,[3],17%
COc1ccc2cnn(C[C@H](C)CN3[C@@H]4CC[C@H]3C[C@@H](OCC3CC3)C4)c2c1 [Compound 311],Emax,[1],120%
same,Emax,[2],65%
same,EC50,M1 muscarinic receptor,50.1 nM
same,Emax,M1 muscarinic receptor,55%
same,Emax,[3],2%
"Cc1ccc2cnn(C[C@H](C)CN3[C@@H]4CC[C@H]3C[C@@H](OCC3CC3)C4)c2c1 [Compound 304, 1-((R)-3-(3-(Cyclopropylmethoxy)-8-aza-bicyclo[3.2.1]octan-8-yl)-2-methylpropyl)-6-methyl-1H-indazole]",M1 PEC50 AVG,[1]; NIH-3T3 cells,8.9
same,Emax,[1],110%
same,M2 PEC50 AVG,[2],7.6
same,Emax,[2],108%
same,M1 GTPγS PEC50 AVG,M1 muscarinic receptor,8.3
same,Emax,M1 muscarinic receptor,67%
same,M3 PEC50 AVG,[3],7.4
same,Emax,[3],9%
"C#CCO[C@H]1C[C@H]2CC[C@@H](C1)N2C[C@@H](C)Cn1ncc2ccccc21 [Compound 318s, 1-((R)-3-((1R,3R,5S)-3-(prop-2-ynyloxy)-8-azabicyclo[3.2.1]octan-8-yl)-2-methylpropyl)-1H-indazole]",M1 PEC50 AVG,[1]; NIH-3T3 cells,8.0
same,Emax,[1],122%
same,M2 PEC50 AVG,[2],7.2
same,Emax,[2],92%
same,EC50,M1 muscarinic receptor,79.4 nM
same,Emax,M1 muscarinic receptor,66%
same,Emax,[3],8%
